From publication PMC9051980 (Saudi Pharmaceutical Journal : SPJ, 2022) come the findings set out here.

Data set [1] relates to PTSD mice. Put plainly: Open field test. The data set is classed as in vivo, C57 mice.
Data set [2] deals with amygdala dopamine transporter (DAT). Briefly: Immunohistochemistry of amygdala DAT. It counts as in vivo, C57 mice. Particulars: Day 19, compared with Healthy group.
Another data set relates to plasma CORT. Briefly: Plasma CORT level. It counts as in vivo, C57 mice. The settings on record: Day 19, compared with Healthy group.
The subject of data set [3] is PTSD mice. Briefly: Freezing response test in fear-conditioning box. The data set is classed as in vivo, C57 mice.
The nature of another data set: Nasal perfusion method. It counts as in vivo, C57 mouse. Particulars: at 60 min; 20 mL artificial nasal solution, 1 mg/mL, total dose 20 mg.
Data set [4] can be described thus: In-vivo tissue distribution evaluation. The settings on record: both, C57BL/6N, mouse, po, 0.4 mg/mouse.
The nature of data set [5]: Plasma pharmacokinetic evaluation. It counts as in vivo, C57BL/6N mice. Particulars: both, C57BL/6N, mouse, po, 0.4 mg/mouse.
The next data set can be described thus: In-vitro drug release. The data set is classed as physicochemical. Particulars: 34 °C, 200 rpm, artificial nasal fluid.
The subject of data set [6] is cilia of the maxillary mucosa of toads. Put plainly: Mucosal irritation. The arrangement: species or system toad.
[7] abbreviates: Day 12, compared with Model group.
Where [8] appears, read: Day 17, five days after drug withdrawal, compared with Healthy group.
Setting [9] is: Day 17, five days after drug withdrawal, compared with Model group.

Regarding `CN[C@H]1CC[C@@H](c2ccc(Cl)c(Cl)c2)c2ccccc21` [Sertraline], the “Open field test indicators” value with PTSD mice [1] (Day 12, compared with Healthy group) was “fewer crossing times”. For the same compound, the “Active distances in the center of thigmotaxis area” value in the data set on PTSD mice [1] (setting [7]) is “more active distances in the center of thigmotaxis area”. For the same compound, in the data set with PTSD mice [1] (setting [7]), the “Crossings in the center of thigmotaxis area” value is given as “more crossings in the center of thigmotaxis area”. The Total active distances entry in the data set with PTSD mice [1] (Day 12, open field, compared with Model group) was “more total active distances”; in the data set with PTSD mice [1] (Day 18, open field, after drug withdrawal, compared with Healthy group), “fewer total active distances”; in the data set with PTSD mice [1] (Day 18, open field, after drug withdrawal, compared with Model group), “increased”; in the data set with PTSD mice [3] (Day 11, fear-conditioning box, compared with Healthy group), “shorter total active distances”; in the data set with PTSD mice [3] (Day 11, fear-conditioning box, compared with Model group) it was “longer total active distances”; with PTSD mice [3] (setting [8]), “shorter total active distances”. For the same compound, in the data set on PTSD mice [3] (setting [9]), the Total active distances entry was “longer total active distances”. In addition, the “Crossings and active distances in the center of thigmotaxis area” value in the data set with PTSD mice [1] (Day 18, after drug withdrawal, compared with Healthy group) was “fewer crossings and active distances in the center of thigmotaxis area”. Besides, the “Crossing of the center of thigmotaxis area” value in the data set with PTSD mice [1] (Day 18, after drug withdrawal, compared with Model group) is “more frequently”. Also, in data set [2], the “DAT expression in amygdala (IOD)” value was “significantly increased”. The “Plasma CORT level” value in the data set with plasma CORT is listed as “decreased”. For the same compound, the Freezing time entry with PTSD mice [3] (Day 11, compared with Healthy group) is given as “longer freezing time”; in the data set with PTSD mice [3] (setting [8]) it was “longer freezing time”; in the data set with PTSD mice [3] (setting [9]) it was “shorter freezing time”.

In the case of `NC(=O)C[S@@+]([O-])C(c1ccccc1)c1ccccc1` [Armodafinil], the “Mucosal absorptive amount of armodafinil” value in the data set “Nasal perfusion method” is listed as 2.50 mg. Also, the AUC(0-t) (commonly the area under the concentration-time curve up to a stated or last time point) in data set [4] (brain) is 1090 ng·h/mL; in data set [4] (liver) it was 2380 ng·h/mL; in [5], 9900 ± 5500 ng·h/mL. In addition, the Cmax – broadly, the maximum level reached in the sampled fluid or tissue – was 259 ± 96 ng/mL in [4] (brain), 1150 ± 199 ng/mL in data set [4] (liver) and 3600 ± 2250 ng/mL in data set [5]. In addition, the Tmax (commonly the time at which the peak concentration occurs) in data set [4] (brain) came to 30 min; in data set [4] (liver), 30 min; in [5] it was 15 min. Besides, in “In-vitro drug release”, the “Time at which the release was complete” value amounted to 2 h. The “Released armodafinil percentage when release was complete” value in the data set “In-vitro drug release” (20 mg/mL armodafinil) was 18.12 ± 1.03%.

In the case of `C[C@H](CCC(=O)O)[C@H]1CC[C@H]2[C@@H]3CC[C@@H]4C[C@H](O)CC[C@]4(C)[C@H]3C[C@H](O)[C@]12C` [Sodium Deoxycholate], the “PVD (persistent vibration duration of cilia)” value in data set [6] (100 μL on toad upper-jaw mucosa, armodafinil 20 mg/mL, sodium deoxycholate 1%) was determined as 136.67 ± 26.95 min. Further, in data set [6] (PVD compared with that of the saline group), the “PPV (percentage of persistent vibration)” value stood at 20.69%. For the same compound, the “Ciliary structure / extent of damage of cilia under microscope” value in data set [6] (maxillary mucosa of toads) was “obviously prostrate or even exfoliated”.
